Laboratory results: paper PMC3929239 (Bioorganic & medicinal chemistry letters, 2011)

Legend:
CYP2D6 = CYP2D6 (Homo sapiens, UniProt P10635); assay: Single point CYP450 inhibition test; format: in vitro ADME; conditions: for inhibition at 10 µM: human, CYP2D6 % inhibition
P110δ/P85α = biological target: T1, P110δ/P85α (Homo sapiens, UniProt O00329); assay: Ambit KINOMEscan; format: binding
T1 sequence (O00329 1-1044): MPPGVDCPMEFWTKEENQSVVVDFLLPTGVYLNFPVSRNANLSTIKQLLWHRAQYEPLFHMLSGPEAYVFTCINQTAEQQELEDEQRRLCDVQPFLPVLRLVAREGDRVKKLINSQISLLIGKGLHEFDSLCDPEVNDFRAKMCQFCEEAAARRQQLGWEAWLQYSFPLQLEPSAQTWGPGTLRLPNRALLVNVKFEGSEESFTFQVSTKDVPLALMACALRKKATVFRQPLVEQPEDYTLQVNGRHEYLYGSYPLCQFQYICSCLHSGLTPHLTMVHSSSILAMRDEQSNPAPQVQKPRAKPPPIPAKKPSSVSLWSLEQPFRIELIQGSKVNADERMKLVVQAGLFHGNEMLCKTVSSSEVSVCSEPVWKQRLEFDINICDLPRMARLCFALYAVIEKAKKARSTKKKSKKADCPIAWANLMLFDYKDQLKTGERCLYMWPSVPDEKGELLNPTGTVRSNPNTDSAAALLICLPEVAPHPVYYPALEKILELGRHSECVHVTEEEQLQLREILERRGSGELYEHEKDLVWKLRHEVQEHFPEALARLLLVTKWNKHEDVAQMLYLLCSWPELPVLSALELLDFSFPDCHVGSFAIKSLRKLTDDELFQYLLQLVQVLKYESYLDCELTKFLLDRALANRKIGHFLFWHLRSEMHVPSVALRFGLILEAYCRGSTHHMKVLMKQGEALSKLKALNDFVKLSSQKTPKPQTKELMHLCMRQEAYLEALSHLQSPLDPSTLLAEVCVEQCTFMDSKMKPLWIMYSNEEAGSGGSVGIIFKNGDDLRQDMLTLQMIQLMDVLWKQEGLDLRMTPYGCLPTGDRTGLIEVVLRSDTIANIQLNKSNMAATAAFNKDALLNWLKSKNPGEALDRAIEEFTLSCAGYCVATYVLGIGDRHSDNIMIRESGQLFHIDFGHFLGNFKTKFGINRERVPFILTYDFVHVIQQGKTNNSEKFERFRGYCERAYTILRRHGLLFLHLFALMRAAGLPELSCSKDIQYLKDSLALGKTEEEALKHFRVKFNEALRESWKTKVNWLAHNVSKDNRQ

mTOR = mTOR (Homo sapiens, UniProt P42345); assay: Ambit KINOMEscan; format: binding
P110α/P85α = P110α/P85α (Homo sapiens, UniProt P42336); assay: Ambit KINOMEscan; format: binding
Sequence of P110α/P85α (P42336 whole entry): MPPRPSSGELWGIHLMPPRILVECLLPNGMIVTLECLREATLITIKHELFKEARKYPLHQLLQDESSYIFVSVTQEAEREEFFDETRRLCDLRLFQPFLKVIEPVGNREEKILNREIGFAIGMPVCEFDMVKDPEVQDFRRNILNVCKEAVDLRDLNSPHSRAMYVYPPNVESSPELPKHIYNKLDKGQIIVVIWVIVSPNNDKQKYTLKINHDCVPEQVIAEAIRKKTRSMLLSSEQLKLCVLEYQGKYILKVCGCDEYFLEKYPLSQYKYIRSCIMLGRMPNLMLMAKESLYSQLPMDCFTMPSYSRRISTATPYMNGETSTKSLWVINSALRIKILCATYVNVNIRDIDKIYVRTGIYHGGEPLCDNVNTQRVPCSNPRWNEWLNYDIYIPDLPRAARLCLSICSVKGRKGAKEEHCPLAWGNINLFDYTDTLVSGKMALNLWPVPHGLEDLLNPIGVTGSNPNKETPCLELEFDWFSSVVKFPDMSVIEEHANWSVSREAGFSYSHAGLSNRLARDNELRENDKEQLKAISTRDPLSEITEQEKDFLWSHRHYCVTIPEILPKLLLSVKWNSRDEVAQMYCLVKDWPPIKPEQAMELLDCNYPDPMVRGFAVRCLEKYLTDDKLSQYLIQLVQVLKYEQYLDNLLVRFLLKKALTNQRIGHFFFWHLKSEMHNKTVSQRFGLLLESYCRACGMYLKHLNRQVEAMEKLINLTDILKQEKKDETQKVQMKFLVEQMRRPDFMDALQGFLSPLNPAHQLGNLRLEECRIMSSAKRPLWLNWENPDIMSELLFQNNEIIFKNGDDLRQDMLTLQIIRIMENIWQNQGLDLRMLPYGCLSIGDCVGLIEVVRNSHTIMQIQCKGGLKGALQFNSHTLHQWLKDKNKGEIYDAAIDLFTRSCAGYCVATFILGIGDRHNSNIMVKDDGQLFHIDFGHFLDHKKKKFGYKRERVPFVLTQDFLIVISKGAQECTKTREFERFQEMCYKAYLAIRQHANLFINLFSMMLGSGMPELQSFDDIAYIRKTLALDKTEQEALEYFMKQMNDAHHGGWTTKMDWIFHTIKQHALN

P110γ = P110γ (Homo sapiens, UniProt P48736); assay: Ambit KINOMEscan; format: binding
Sequence of P110γ (P48736 whole entry): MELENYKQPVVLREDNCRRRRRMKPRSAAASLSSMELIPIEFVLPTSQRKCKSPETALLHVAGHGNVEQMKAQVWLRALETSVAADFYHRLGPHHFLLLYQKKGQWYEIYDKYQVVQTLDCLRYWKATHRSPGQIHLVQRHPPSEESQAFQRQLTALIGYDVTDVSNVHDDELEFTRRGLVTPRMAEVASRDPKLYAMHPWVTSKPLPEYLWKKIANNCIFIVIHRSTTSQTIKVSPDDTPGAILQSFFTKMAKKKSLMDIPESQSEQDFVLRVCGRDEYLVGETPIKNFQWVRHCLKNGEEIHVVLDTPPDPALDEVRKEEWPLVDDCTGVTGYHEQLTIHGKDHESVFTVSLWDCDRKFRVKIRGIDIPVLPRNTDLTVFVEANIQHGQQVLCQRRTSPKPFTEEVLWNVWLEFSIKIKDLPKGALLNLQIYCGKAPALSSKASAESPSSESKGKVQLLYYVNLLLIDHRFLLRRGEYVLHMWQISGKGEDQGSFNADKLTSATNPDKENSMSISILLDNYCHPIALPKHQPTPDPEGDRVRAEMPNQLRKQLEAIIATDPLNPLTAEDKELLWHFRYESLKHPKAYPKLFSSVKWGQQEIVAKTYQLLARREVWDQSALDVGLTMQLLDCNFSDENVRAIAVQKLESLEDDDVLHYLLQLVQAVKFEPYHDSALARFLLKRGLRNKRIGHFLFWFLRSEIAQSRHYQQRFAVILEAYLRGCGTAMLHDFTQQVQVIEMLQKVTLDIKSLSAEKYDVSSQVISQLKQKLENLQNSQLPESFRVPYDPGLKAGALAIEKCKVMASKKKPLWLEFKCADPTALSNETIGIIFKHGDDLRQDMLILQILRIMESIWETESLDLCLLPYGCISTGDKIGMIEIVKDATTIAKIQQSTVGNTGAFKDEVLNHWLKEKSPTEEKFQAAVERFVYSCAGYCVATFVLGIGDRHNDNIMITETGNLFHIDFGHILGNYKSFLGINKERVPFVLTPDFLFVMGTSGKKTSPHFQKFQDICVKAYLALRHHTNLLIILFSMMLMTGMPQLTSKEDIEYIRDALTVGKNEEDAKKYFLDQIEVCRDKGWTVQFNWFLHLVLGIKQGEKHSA

CYP3A4 = CYP3A4 (Homo sapiens, UniProt P08684); assay: Single point CYP450 inhibition test; format: in vitro ADME
Sequence of CYP3A4 (P08684 whole entry): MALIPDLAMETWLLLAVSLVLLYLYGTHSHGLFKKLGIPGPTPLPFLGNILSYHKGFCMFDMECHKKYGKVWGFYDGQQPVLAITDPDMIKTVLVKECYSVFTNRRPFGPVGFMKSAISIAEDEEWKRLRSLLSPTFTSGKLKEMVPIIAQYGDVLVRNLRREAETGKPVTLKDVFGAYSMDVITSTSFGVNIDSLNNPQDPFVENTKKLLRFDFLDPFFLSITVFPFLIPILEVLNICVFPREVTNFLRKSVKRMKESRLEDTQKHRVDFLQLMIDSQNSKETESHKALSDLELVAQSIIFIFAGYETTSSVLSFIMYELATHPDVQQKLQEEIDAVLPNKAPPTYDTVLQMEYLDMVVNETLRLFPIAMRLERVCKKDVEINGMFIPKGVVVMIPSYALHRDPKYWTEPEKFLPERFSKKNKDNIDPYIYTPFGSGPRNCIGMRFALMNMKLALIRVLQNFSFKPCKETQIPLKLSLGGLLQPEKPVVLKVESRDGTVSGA

PI3K-C2β = PI3K-C2β (Homo sapiens, UniProt O00750); assay: Ambit KINOMEscan; format: binding
Sequence of PI3K-C2β (O00750 whole entry): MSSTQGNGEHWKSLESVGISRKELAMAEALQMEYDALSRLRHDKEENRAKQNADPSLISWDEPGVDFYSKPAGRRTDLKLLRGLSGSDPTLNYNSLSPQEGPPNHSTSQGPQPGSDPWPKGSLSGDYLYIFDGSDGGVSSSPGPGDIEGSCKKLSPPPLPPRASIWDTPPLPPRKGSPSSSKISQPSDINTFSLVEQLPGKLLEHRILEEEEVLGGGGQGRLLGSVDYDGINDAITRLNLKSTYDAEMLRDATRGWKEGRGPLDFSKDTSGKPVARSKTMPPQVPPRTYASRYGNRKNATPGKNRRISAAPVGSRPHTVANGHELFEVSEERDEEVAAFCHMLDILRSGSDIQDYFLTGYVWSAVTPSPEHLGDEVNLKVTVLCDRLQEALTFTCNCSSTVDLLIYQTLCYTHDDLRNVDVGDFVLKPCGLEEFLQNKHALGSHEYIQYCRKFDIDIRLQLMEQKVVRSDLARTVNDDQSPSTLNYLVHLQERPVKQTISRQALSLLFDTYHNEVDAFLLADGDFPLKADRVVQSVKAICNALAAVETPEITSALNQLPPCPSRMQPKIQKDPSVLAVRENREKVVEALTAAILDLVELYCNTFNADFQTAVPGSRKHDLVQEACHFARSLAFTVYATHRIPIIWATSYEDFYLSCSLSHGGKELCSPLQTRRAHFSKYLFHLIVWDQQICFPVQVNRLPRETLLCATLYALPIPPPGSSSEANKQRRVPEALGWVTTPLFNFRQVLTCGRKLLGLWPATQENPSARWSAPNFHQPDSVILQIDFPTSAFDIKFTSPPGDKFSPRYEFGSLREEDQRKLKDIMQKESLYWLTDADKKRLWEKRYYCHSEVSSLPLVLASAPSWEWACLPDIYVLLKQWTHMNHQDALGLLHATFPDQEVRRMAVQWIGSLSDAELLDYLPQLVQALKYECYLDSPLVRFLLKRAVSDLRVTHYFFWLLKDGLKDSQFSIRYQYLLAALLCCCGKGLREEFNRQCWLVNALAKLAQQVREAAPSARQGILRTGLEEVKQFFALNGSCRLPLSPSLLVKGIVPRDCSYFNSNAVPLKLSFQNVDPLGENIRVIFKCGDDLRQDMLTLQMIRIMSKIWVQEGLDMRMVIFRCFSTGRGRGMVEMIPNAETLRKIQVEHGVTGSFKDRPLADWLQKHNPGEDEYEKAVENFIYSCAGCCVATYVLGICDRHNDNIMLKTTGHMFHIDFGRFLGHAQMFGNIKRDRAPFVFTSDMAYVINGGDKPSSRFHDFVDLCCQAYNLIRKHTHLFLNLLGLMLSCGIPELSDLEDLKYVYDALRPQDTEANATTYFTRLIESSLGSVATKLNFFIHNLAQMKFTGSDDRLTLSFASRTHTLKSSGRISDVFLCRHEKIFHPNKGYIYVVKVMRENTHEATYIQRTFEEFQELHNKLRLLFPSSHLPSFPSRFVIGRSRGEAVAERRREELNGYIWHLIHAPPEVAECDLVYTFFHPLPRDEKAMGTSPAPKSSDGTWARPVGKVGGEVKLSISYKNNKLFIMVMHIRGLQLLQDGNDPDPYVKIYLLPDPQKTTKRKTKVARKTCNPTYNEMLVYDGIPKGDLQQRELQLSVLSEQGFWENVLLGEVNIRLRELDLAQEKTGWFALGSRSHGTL

[1] = system: downstream targets of mTOR, S6K, and Akt; assay: In vivo pharmacodynamic study; conditions: liver and lung tissues, after 6h, 20 mg/kg
450 kinases = 450 kinases profiled by KINOMEscan; cited from earlier work
U87-MG mouse xenograft = conditions: cited from earlier work

Sequence of CYP2D6 (P10635 whole entry): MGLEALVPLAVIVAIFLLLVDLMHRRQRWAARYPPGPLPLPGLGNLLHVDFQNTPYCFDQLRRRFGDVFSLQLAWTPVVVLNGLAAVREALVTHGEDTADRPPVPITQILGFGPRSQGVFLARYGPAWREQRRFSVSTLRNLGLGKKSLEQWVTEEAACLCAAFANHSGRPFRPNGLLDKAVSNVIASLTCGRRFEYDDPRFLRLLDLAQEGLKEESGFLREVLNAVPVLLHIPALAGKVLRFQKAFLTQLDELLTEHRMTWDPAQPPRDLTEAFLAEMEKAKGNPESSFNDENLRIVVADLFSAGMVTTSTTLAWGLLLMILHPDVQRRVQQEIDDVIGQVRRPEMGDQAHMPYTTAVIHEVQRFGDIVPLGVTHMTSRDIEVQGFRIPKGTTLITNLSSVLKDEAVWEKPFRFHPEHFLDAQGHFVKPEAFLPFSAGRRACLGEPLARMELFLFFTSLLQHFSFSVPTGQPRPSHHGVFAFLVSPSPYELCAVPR

Compound | CYP2D6 % inhibition (CYP2D6; 10 µM) | inhibition at 10 µM (CYP2D6) | Ambit score (P110δ/P85α) | Ambit score (mTOR) | Ambit score (P110α/P85α) | Ambit score (P110γ) | inhibition at 10 µM (CYP3A4) | Ambit score (PI3K-C2β) | blocked phosphorylation of S6K (T389) [1] | blocked phosphorylation of pAkt (S473) [1] | protein kinase off-targets (450 kinases) | anti-tumor activity (U87-MG mouse xenograft)
CN1CCC(NC(=O)c2ccc(-c3ccc(-n4c(=O)ccc5cnc6ccc(-c7cnc8ccccc8c7)cc6c54)cc3C(F)(F)F)cc2)CC1 [Compound 10] | 51% | > 50% | 2% | 0% | 0.1% | 0.05% | > 60% | 0.65% | 80–90% | 80–90% | – | –
Cc1cc(-n2c(=O)ccc3cnc4ccc(-c5cnc6ccccc6c5)cc4c32)ccc1-c1ccc(C(=O)NC2CCN(C)CC2)cc1 [Compound 19] | – | 24% | – | – | – | – | – | – | – | – | – | –
CCC(=O)N1CCN(c2ccc(-n3c(=O)ccc4cnc5ccc(-c6cnc7ccccc7c6)cc5c43)cc2C(F)(F)F)CC1 [Torin1] | – | – | – | – | – | – | – | – | – | – | no other significant protein kinase off-targets | exhibited anti-tumor activity
